Results as given in PMC11434026, “Development and Validation of an LC-MS/MS Assay for the Quantitation of MO-OH-Nap Tropolone in Mouse Plasma: Application to In Vitro and In Vivo Pharmacokinetic Studies” (Molecules, 2024).
Where two headings read alike, the source gives them in different places.

Columns and labels:
CD-1 mice = tested on: CD-1 mice; design: method as in PMID 30612055; settings: up to 9.4 mg/kg intravenously three times weekly; cited from earlier work
[1] = In vitro metabolic stability in mouse liver microsomes; type: in vitro ADME; settings: MLM
Method: Metabolic stability was assessed using mouse, rat, and human liver microsomes (XenoTech, LLC, Lenexa, KS, USA) for phase I metabolism. Briefly, A reaction solution was prepared by mixing […] of PBS (100 mM, pH 7.4), 25 µL of microsomal protein (20 mg/mL), MgCl2 (5 µL; 10 mM), and 50 µL of NADPH (2 mM). The final volume (0.5 mL) was pre-incubated for 10 min in a 37 °C water bath at 60 rpm. An aliquot of MO-OH-Nap (2 µL from 1 µg/mL stock) was spiked into the above solution to initiate the reaction. Aliquots of (50 µL) were collected at time intervals (0, 5, 15, 20, 30, 45, and 60 min) and quenched with 300 µL of ACN, […]. Afterwards, 10 µL of IS stock (1.0 µg/mL) was spiked in each sample then vortexed (5 min) and centrifuged at 10,800 rpm (13,000× g) for 15 min. Samples were vortexed and centrifuged at 10,800 rpm (13,000× g) for 15 min, the supernatant was collected and transferred to an HPLC vial and 10 µL were injected into the LC-MS/MS system. Testosterone and diclofenac were used as positive and negative controls to ensure that liver microsomes and incubation conditions were appropriate for conducting metabolism studies.

[2] = Plasma pharmacokinetics after single IP dose in CD-1 mice; type: in vivo, mouse; settings: for Cmax / Vd/F / AUC: 5 mg/kg
Method: Female CD-1 mice,6–8-week-old, with weights ranging from 20 to 25 g were housed in the UNMC animal facility, at a temperature of 23–24 °C, relative humidity of 40–70%, and 12/12-h light/dark cycles. Mice were left to acclimatize to laboratory conditions for 7 days prior to experimental day. MO-OH-Nap was dissolved in a 5% DMSO, 45% w/v hydroxypropyl-β-cyclodextrin solution in PBS (final concentration 0.625 mg/mL MO-OH-Nap). MO-OH-Nap (5 mg/kg) was administered IP. After dosing, approximately 100 µL of blood was collected in Lithium-Heparin-Microvette 300 µL Capillary Blood Collection Tube (SARSTEDT AG& Co., Nümbrecht, Germany) from the maxillary vein at 5, 15, 30 min and 1, 2, 4, 6, 8, 24, and 48 h. Two blood time points were collected from every mouse and the third time point was the terminal time point, for a total of three time points from each mouse (5 mice/group/per time point). Blood was centrifuged at 4000× g at 4 °C for 10 min to extract plasma. The collected plasma samples were stored at −80 °C until analysis. The pharmacokinetics of MO-OH-Nap were determined using non-compartmental (NCA) pharmacokinetics analysis, utilizing Phoenix® WinNonlin software version 8.2 (Certara Corporation, Mountain View, CA, USA). The Cmax and Tmax were determined from visual inspection of the concentration time data. The AUC0_∞ was estimated using the linear trapezoidal method from 0 time point to last time point (0-tlast) and extrapolation from last time point to infinity based on the observed concentration at the last time point divided by the terminal elimination rate constant (k). The t1/2, CL/F and Vd/F were calculated using Equation (10), Equation (11) and Equation (12), respectively. (10) t1/2=0.693/k (11) CL=Dose/AUC0_∞ (12) Vd=Dose /k×AUC0_∞

mouse plasma proteins = assay: Plasma protein binding by Rapid Equilibrium Dialysis (RED); type: in vitro ADME; settings: for % Drug Remaining at 5 h ± SD: 37 °C; for Equilibrium at 5 h ± SD: receiver/donor concentration; for % Plasma Protein Bound ± SD: mouse plasma; for % Drug Remaining at 5 h ± SD / % Plasma Protein Bound ± SD: 5 h
Method: […] The RED Kit represents 90 wells with two chambers at each well (red chamber for plasma and white buffer chamber separated by Teflon base plate. Prior to the experiments, RED kit was rinsed with 10% ethanol for 10 min and left to dryness. Also, mouse plasma was centrifuged at 2200 rpm (540× g) for 5 min and adjusted to pH […] with lactic acid. In brief, MO-OH-Nap spiked plasma samples (300 µL) were added in red chamber. The buffer chamber contained […] of Phosphate-buffered saline (100 mM, pH 7.4), which contained 100 mM sodium phosphate (Na3PO4) and 150 mM NaCl. The RED kit plate was covered with sealing tape and incubated at 37 °C on an orbital shaker at 300 rpm for 5 h. Aliquot of 50 µL were collected from both chambers, then mixed with equal amount of buffer or blank plasma, consecutively, for analysis. The samples were then processed using PPT extraction technique, as per described in the Section 4.4, and analyzed by LC-MS/MS.
Additionally, the plasma stability and the non-specific binding potential of MO-OH-Nap to the RED kit dialysis membrane were determined separately at the same time from the remaining plasma samples spiked with MO-OH-Nap.
Stability and non-specific binding were assessed by collecting samples at 0 h and 5 h of spiked MO-OH-Nap […] that was incubated in the same PPB condition for 5 h. The two samples were then analyzed by LC-MS/MS and the concentration was then compared between the two time points. The stability, equilibrium, device recovery, and PPB in plasma were calculated using the following equations:(6) % Drug Bound=Concentrationdonor cell−Conentrationreceiver cell/Concentrationdonor cell×100 (7) % Device Recovery=Concentrationreceiver cell+Concentrationdonor cell/Concentration5 h×100 (8) % Remaining at 5 h=Concentration5 h/Concentration0 h×100 (9) Equilibrium at 5 h=Concentrationreceiver cell/Concentrationdonor cell

[3] = female, mouse, CD-1 mice, single IP 5 mg/kg, plasma

SMILES: O=c1c(O)ccccc1-c1ccc2ccccc2c1 [MO-OH-Nap, MO-OH-Nap tropolone]
- tolerability (blood counts, renal and hepatic functions, body weight) (CD-1 mice): well-tolerated
- metabolic depletion ([1]; NADPH, 60 min): < 15%
- parent drug remaining ([1]; all time points to 60 min): > 95%
- detectability in plasma ([2]; 48 h after single IP 5 mg/kg): detectable
- Cmax ([2]; CD-1 mice, single IP 5 mg/kg, plasma): 3040.9 ng/mL
- Vd/F ([2]; CD-1 mice, single IP 5 mg/kg): 43,727.1 mL/kg
- AUC ([2]; female, CD-1, mouse, plasma, ip, CD-1 mice, single IP 5 mg/kg, plasma, read-out: AUC0_last): 2750 ng·h/mL
- AUC ([2]; female, CD-1, mouse, plasma, ip, CD-1 mice, single IP 5 mg/kg, plasma, read-out: AUC0_∞): 2860 ng·h/mL
- Cmax ([2]; female, CD-1, mouse, plasma, ip, CD-1 mice, single IP 5 mg/kg, plasma, read-out: Cmax): 3040 ng/mL
- Vd/F ([2]; female, CD-1, mouse, plasma, ip, CD-1 mice, single IP 5 mg/kg, read-out: Vd/F): 43.3 L/kg
- CL/F ([2]; female, mouse, plasma, CD-1 mice, single IP 5 mg/kg): 29.8 mL/min/kg
- Tmax [2, 3]: 0.3 h
- half-life [2, 3]: 17.7 h
- % Drug Remaining at 5 h ± SD (mouse plasma proteins; 1 µg/mL): 105.6 ± 0.8%
- Equilibrium at 5 h ± SD (mouse plasma proteins; 1 µg/mL): 0.3 ± 0.5
- % Drug Remaining at 5 h ± SD (mouse plasma proteins; 10 µg/mL): 91.1 ± 2.5%
- Equilibrium at 5 h ± SD (mouse plasma proteins; 10 µg/mL): 0.1 ± 0.00
- % Plasma Protein Bound ± SD (mouse plasma proteins; 1 µg/mL): 99.6 ± 0.1%
- % Plasma Protein Bound ± SD (mouse plasma proteins; 10 µg/mL): 99.7 ± 0.1%
